Values of other authors in US20230381101A1, “AQUEOUS PHARMACEUTICAL COMPOSITIONS COMPRISING SGLT-2 INHIBITORS” (Boehringer Ingelheim Vetmedica GmbH, priority 2022, published 2023).

Settings: n-octanol/water; values taken from http://www.chemicalize.org/

| Compound | log10P |
| --- | --- |
| CC(=O)N(C)C [N,N-dimethylacetamide] | −0.583 |
| CCO [ethanol] | −0.16 |
| OCC(O)CO [propane-1,2,3-triol] | −1.84 |
